Source: ChEMBL document CHEMBL1909046, “DrugMatrix in vitro pharmacology data”

Columns and labels:
[1] = DRUGMATRIX: GABAA, Flunitrazepam, Central radioligand binding (ligand: [3H] Flunitrazepam); format: cell membranes, Rattus norvegicus, Wistar, Brain, Membrane; conditions: Not Active = under 50% inhibition at 10 µM
[2] = biological target: T1, Caspase-1 (Homo sapiens, UniProt P29466); parameters: species or system Escherichia coli;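 also: Caspase-1 enzyme inhibition assay with a peptide substrate; in other assays of this panel Not Active means under 50% inhibition at 10 µM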
T1 sequence (P29466 whole entry): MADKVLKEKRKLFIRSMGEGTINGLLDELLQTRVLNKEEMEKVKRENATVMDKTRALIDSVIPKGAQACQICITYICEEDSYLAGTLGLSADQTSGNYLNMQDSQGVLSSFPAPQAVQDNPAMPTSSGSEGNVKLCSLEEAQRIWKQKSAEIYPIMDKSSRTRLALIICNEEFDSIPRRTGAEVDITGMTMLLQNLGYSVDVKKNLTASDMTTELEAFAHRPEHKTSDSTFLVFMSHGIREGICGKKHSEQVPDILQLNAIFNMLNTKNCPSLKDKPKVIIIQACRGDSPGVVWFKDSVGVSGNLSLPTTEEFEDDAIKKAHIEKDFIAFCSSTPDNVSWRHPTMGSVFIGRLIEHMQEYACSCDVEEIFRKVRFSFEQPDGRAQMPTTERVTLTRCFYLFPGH

[3] = biological target: Vascular endothelial growth factor receptor 1 (Homo sapiens, UniProt P17948); format: cell-based; conditions: huvec; also: in other assays of this panel Not Active means under 50% inhibition at 10 µM
Vascular endothelial growth factor receptor 1, sequence (P17948 whole entry): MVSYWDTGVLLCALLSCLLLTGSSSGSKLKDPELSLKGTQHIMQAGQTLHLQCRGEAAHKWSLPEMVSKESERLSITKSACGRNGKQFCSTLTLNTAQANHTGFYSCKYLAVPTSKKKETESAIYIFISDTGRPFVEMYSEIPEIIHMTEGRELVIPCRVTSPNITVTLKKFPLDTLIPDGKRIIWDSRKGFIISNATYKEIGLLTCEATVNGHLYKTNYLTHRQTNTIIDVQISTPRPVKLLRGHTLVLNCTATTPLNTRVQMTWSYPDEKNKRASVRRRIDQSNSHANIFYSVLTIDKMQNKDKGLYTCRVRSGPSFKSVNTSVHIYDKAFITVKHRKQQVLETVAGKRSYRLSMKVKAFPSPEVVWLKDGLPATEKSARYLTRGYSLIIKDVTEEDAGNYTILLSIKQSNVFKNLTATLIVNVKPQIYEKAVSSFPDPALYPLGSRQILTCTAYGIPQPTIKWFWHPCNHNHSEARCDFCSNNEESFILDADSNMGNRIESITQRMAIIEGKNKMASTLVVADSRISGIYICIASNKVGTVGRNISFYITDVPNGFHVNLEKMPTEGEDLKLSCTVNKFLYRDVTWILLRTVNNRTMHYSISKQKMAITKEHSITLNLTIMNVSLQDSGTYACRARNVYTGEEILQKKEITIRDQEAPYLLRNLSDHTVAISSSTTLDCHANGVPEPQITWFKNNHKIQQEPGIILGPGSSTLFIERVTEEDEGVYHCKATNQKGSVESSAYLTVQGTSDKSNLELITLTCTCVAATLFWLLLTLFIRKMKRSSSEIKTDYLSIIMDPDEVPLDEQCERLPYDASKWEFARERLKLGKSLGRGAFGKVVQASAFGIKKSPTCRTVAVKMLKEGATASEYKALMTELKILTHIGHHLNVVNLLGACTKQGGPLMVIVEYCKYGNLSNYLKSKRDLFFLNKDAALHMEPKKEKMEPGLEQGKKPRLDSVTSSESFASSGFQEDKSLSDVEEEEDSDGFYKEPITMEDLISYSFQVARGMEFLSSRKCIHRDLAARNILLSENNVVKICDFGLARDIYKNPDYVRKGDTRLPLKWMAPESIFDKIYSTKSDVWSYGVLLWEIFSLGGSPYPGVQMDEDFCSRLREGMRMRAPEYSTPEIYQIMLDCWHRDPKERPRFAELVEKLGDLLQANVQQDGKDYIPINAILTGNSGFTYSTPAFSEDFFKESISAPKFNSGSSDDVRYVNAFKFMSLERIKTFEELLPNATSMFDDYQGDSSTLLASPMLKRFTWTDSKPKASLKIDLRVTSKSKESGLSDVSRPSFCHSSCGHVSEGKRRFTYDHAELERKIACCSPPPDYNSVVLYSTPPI

[4] = biological target: T2, 3-hydroxy-3-methylglutaryl-coenzyme A reductase (Homo sapiens, UniProt P04035); parameters: species or system Escherichia coli;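 also: enzyme inhibition assay of HMG-CoA reductase using radiolabeled [14C]HMG-CoA as substrate; in other assays of this panel Not Active means under 50% inhibition at 10 µM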
T2 sequence (P04035 whole entry): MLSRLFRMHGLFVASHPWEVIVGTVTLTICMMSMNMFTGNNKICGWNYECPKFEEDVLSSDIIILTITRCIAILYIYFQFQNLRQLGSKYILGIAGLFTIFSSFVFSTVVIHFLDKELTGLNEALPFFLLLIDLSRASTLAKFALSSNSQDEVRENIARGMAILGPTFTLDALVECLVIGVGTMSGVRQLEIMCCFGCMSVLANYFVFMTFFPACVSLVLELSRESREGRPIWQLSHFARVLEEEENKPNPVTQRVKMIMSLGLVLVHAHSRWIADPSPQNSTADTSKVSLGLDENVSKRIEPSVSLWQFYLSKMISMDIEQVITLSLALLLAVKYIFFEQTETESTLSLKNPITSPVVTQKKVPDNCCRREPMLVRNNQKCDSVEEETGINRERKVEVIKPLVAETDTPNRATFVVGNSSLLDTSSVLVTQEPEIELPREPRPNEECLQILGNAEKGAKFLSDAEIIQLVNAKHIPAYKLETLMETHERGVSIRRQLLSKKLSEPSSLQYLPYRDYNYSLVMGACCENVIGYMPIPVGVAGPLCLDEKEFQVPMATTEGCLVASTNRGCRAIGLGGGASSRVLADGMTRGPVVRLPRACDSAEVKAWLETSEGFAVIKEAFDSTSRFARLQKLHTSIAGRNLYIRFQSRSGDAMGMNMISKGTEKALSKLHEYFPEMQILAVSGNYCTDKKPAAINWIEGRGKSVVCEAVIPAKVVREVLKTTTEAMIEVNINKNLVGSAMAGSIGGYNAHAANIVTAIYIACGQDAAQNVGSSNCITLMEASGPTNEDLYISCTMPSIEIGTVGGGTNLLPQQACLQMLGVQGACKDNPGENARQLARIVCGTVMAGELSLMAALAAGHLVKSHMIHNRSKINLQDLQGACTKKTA

[5] = biological target: T3, Muscarinic acetylcholine receptor M5 (Homo sapiens, UniProt P08912); format: cell membranes, CHO-K1, Membrane; conditions: cho-k1; also: in other assays of this panel Not Active means under 50% inhibition at 10 µM
T3 sequence (P08912 whole entry): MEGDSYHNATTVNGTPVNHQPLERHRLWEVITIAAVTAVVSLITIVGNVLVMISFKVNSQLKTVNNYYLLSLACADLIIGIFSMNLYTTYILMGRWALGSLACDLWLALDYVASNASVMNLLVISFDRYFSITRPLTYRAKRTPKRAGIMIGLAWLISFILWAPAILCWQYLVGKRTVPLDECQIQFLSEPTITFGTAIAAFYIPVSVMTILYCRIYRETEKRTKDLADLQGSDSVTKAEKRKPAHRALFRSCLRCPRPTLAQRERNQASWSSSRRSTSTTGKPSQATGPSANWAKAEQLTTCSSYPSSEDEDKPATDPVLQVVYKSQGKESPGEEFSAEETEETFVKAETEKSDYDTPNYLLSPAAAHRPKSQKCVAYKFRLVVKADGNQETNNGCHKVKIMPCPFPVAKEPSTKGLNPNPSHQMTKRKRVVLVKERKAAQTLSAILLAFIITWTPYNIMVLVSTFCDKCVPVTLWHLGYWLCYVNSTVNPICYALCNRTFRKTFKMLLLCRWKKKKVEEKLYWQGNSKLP

[6] = biological target: Mitogen-activated protein kinase 14 (Homo sapiens, UniProt Q16539); parameters: species or system Escherichia coli
Mitogen-activated protein kinase 14, sequence (Q16539 whole entry): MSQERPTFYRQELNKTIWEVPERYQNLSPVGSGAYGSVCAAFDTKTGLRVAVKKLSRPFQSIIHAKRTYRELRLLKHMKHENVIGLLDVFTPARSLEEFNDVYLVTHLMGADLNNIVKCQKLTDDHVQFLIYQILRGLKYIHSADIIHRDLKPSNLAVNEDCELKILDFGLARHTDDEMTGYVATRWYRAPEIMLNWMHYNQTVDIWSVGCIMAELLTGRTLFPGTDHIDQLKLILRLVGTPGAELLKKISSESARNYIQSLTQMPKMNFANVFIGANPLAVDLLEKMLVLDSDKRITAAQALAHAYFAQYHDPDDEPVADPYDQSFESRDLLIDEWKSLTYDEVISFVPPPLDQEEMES

[7] = biological target: Vasopressin V1a receptor (Homo sapiens, UniProt P37288); format: cell membranes, Membrane; conditions: hek293; also: in other assays of this panel Not Active means under 50% inhibition at 10 µM
Vasopressin V1a receptor, sequence (P37288 whole entry): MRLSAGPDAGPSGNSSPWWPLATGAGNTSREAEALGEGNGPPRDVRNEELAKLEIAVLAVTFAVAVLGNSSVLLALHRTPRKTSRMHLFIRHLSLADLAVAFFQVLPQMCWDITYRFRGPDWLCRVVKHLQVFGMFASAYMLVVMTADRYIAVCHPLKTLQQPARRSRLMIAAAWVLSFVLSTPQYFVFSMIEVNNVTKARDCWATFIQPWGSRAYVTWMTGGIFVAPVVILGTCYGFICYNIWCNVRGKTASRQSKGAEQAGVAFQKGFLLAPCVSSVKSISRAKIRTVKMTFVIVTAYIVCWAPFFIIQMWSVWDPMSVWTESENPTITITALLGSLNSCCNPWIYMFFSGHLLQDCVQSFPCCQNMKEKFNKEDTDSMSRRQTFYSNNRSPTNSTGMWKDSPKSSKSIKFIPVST

[8] = biological target: T4, Muscarinic acetylcholine receptor M2 (Homo sapiens, UniProt P08172); format: cell membranes, CHO-K1, Membrane; conditions: cho-k1; also: in other assays of this panel Not Active means under 50% inhibition at 10 µM
T4 sequence (P08172 whole entry): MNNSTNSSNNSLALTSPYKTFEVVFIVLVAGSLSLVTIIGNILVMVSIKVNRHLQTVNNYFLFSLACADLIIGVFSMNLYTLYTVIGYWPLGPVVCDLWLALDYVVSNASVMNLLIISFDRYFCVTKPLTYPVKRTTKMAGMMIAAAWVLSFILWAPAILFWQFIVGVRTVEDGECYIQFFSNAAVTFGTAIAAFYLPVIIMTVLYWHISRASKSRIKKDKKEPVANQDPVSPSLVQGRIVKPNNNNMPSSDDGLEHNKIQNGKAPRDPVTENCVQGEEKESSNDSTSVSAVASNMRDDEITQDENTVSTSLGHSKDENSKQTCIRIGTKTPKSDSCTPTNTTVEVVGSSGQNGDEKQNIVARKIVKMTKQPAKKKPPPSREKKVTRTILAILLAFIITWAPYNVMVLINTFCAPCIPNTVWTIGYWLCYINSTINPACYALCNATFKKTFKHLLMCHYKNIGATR

[9] = DRUGMATRIX: Sodium/nucleoside co-transporter radioligand binding (ligand: nitrobenzylthioinosine); format: cell membranes, Cavia porcellus, Dunkin-Hartley, Cerebral cortex, Membrane; conditions: Not Active = under 50% inhibition at 10 µM

c1ccc2c(c1)cc1ccc3cccc4ccc2c1c34
Not Active: IC50 [1] | Ki [1] | IC50 [2] | IC50 [3] | IC50 [4] | IC50 [5] | IC50 [6] | IC50 [7] | IC50 [8] | IC50 [9] | Ki [9]

CCCCCCCCCc1ccc(O)cc1 [4-NONYLPHENOL]
Not Active: IC50 [1] | Ki [1] | IC50 [2] | IC50 [3] | IC50 [4] | IC50 [6] | IC50 [7] | IC50 [8] | IC50 [9] | Ki [9]

N#C[C@H](O[C@@H]1O[C@H](CO[C@@H]2O[C@H](CO)[C@@H](O)[C@H](O)[C@H]2O)[C@@H](O)[C@H](O)[C@H]1O)c1ccccc1 [AMYGDALIN]
Not Active: IC50 [1] | Ki [1] | IC50 [2] | IC50 [3] | IC50 [4] | IC50 [5] | IC50 [6] | IC50 [7] | IC50 [8] | IC50 [9] | Ki [9]

C=C1[C@@H]2CCC3[C@@](CC[C@@H]4[C@H](C(=O)O)C[C@@H](O[C@@H]5O[C@H](CO)[C@@H](OS(=O)(=O)[O-])[C@H](OS(=O)(=O)[O-])[C@H]5OC(=O)CC(C)C)C[C@@]34C)(C2)[C@@H]1O.[K+].[K+] (some centres undefined) [ATRACTYLOSIDE]
Not Active: IC50 [1] | Ki [1] | IC50 [2] | IC50 [3] | IC50 [4] | IC50 [5] | IC50 [6] | IC50 [7] | IC50 [8] | IC50 [9] | Ki [9]

CCCC[C@@H](CC)COC(=O)c1ccccc1C(=O)OC[C@@H](CC)CCCC [BIS(2-ETHYLHEXYL)PHTHALATE]
Not Active: IC50 [1] | Ki [1] | IC50 [2] | IC50 [3] | IC50 [4] | IC50 [5] | IC50 [6] | IC50 [7] | IC50 [8] | IC50 [9] | Ki [9]

CN1C[C@H](C(=O)N[C@]2(C)O[C@@]3(O)[C@@H]4CCCN4C(=O)[C@H](Cc4ccccc4)N3C2=O)C=C2c3cccc4[nH]cc(c34)C[C@H]21 [ERGOTAMINE]
Not Active: IC50 [1] | Ki [1] | IC50 [2] | IC50 [3] | IC50 [4] | IC50 [5] | IC50 [6] | IC50 [7] | IC50 [8] | IC50 [9] | Ki [9]

C=C(C)[C@@H]1[C@H]2OC(=O)[C@@H]1[C@]1(O)C[C@H]3O[C@]34C(=O)O[C@H]2[C@]14C [PICROTOXININ]
Not Active: IC50 [1] | Ki [1] | IC50 [2] | IC50 [3] | IC50 [4] | IC50 [5] | IC50 [6] | IC50 [7] | IC50 [8] | IC50 [9] | Ki [9]

CARBOPLATIN
Not Active: IC50 [1] | Ki [1] | IC50 [2] | Ki [2] | IC50 [3] | Ki [3] | IC50 [4] | Ki [4] | IC50 [5] | Ki [5] | IC50 [6] | Ki [6] | IC50 [7] | Ki [7] | IC50 [8] | Ki [8] | IC50 [9] | Ki [9]
